Laboratory results published in patent US10919916B2, “Boron-containing small molecules” (Bill & Melinda Gates Foundation, priority 2016, dated 2021).
≈ marks a conversion by molar mass, not a printed value. Where two headings read alike, the source gives them in different places.

Tests used:
Format in all cases: cell-based
[1] = tested on: Wolbachia pipientis in C6/36 cell line; assay: Anti-Wolbachia high-content assay; conditions: C6/36 (wAlbB) cells, 7 days at 26° C., 50% reduction of Wolbachia, read-out: EC50 Wolbachia pipientis in C6/36 cell line
Protocol: After 15 minutes, all media was removed from each well and fresh media (no stain) was added. Imaging of each well was accomplished using a Perkin Elmer Operetta high-content imaging system. Five fields per well were imaged using a confocal 60× objective with the Fluorescein filter (excitation filter: 460-490 nm; emission filter: 500-550 nm). Images were analyzed using the Perkin Elmer Harmony software to score each intact cell on the basis of texture complexity of the cytoplasm. Full details can be found in: […]. et al, J. Biomol.

[2] = tested on: Staphylococcus aureus, MRSA (ATCC 33591); assay: Antibacterial MIC assay (microbroth dilution, CLSI); conditions: read-out: MIC Staphylococcus aureus, MRSA (ATCC 33591)
Outline: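 Microbroth dilution per CLSI M07-A10/M100-S25 in cation-adjusted Mueller-Hinton broth, with 3% lysed horse blood added for S. pneumoniae. Inoculum from a 0.5 McFarland direct colony suspension, diluted to 5×10^5 CFU/mL in the well. Compounds were 2-fold serially diluted; MIC read against a growth control.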

[3] = tested on: Streptococcus pneumoniae (ATCC 49619); assay: as above
Outline: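 CLSI broth microdilution: 2-fold compound dilutions in cation-adjusted Mueller-Hinton broth supplemented with 3% lysed horse blood for S. pneumoniae, inoculum 5×10^5 CFU/mL from a 0.5 McFarland direct colony suspension, with growth control.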

[4] = microbroth dilution, cation-adjusted Mueller-Hinton broth, 35° C. for 16-20 hours
[5] = ATCC49619, read-out: MIC Streptococcus pneumoniae (ATCC 49619)
[6] = ATCC49619, microbroth dilution, 3% lysed horse blood, 35° C. for 16-20 hours, read-out: MIC Streptococcus pneumoniae (ATCC 49619)

EC50 [1] [nM] | MIC [2, 4] [µg/mL] | MIC [3, 6] [µg/mL] | Compound | MIC [2] [µg/mL] | MIC [3, 5] [µg/mL]
> 1000 | 0.5 to 2 (≈ 0.842 to 3.37 µM) | – | C=C[C@]1(C)C[C@@H](OC(=O)COc2cc3c(c(C4CCNCC4)c2)COB3O)[C@]2(C)[C@H](C)CC[C@]3(CCC(=O)[C@H]32)[C@@H](C)[C@@H]1O [Compound 18, (3aR,4R,5R,7S,8S,9R,9aS,12R)-8-hydroxy-4,7,9,12-tetramethyl-3-oxo-7-vinyldecahydro-4,9a-propanocyclopenta[8]annulen-5-yl 2-((1-hydroxy-4-(piperidin-4-yl)-1,3-dihydrobenzo[c][1,2]oxaborol-6-yl)oxy)acetate] | – | –
– | – | – | C=C[C@]1(C)C[C@@H](OC(=O)COc2ccc3c(c2)B(O)N(C(=O)OC(C)(C)C)N=C3)[C@]2(C)[C@H](C)CC[C@]3(CCC(=O)[C@H]32)[C@@H](C)[C@@H]1O [Compound 71, tert-butyl 1-hydroxy-7-(2-(((3aR,4R,5R,7S,8S,9R,9aS,12R)-8-hydroxy-4,7,9,12-tetramethyl-3-oxo-7-vinyldecahydro-4,9a-propanocyclopenta[8]annulen-5-yl)oxy)-2-oxoethoxy)benzo[d][1,2,3]diazaborinine-2(1H)-carboxylate] | < 0.25 | < 0.25
– | – | – | C=C[C@]1(C)C[C@@H](OC(=O)COc2ccc3c(c2)B(O)NN=C3)[C@]2(C)[C@H](C)CC[C@]3(CCC(=O)[C@H]32)[C@@H](C)[C@@H]1O [Compound 72, (3aR,4R,5R,7S,8S,9R,9aS,12R)-8-hydroxy-4,7,9,12-tetramethyl-3-oxo-7-vinyldecahydro-4,9a-propanocyclopenta[8]annulen-5-yl 2-((1-hydroxy-1,2-dihydrobenzo[d][1,2,3]diazaborinin-7-yl)oxy)acetate] | < 0.25 | < 0.25
– | – | – | C=C[C@]1(C)C[C@@H](OC(=O)COc2ccc3c(c2)B(O)N(S(C)(=O)=O)N=C3)[C@]2(C)[C@H](C)CC[C@]3(CCC(=O)[C@H]32)[C@@H](C)[C@@H]1O [Compound 75, (3aR,4R,5R,7S,8S,9R,9aS,12R)-8-hydroxy-4,7,9,12-tetramethyl-3-oxo-7-vinyldecahydro-4,9a-propanocyclopenta[8]annulen-5-yl 2-((1-hydroxy-2-(methylsulfonyl)-1,2-dihydrobenzo[d][1,2,3]diazaborinin-7-yl)oxy)acetate] | < 0.25 | 0.5 to 2 (≈ 0.833 to 3.33 µM)
– | – | – | C=C[C@]1(C)C[C@@H](OC(=O)COc2ccc3c(c2F)B(O)N(S(C)(=O)=O)N=C3)[C@]2(C)[C@H](C)CC[C@]3(CCC(=O)[C@H]32)[C@@H](C)[C@@H]1O [Compound 80, (3aR,4R,5R,7S,8S,9R,9aS,12R)-8-hydroxy-4,7,9,12-tetramethyl-3-oxo-7-vinyldecahydro-4,9a-propanocyclopenta[8]annulen-5-yl 2-((8-fluoro-1-hydroxy-2-(methylsulfonyl)-1,2-dihydrobenzo[d][1,2,3]diazaborinin-7-yl)oxy)acetate] | < 0.25 | 0.5 to 2 (≈ 0.808 to 3.23 µM)
– | < 0.25 | < 0.25 | C=C[C@]1(C)C[C@@H](OC(=O)COc2ccc3c(c2)B(O)N(C)N=C3)[C@]2(C)[C@H](C)CC[C@]3(CCC(=O)[C@H]32)C[C@@H]1O [Compound 83, (3aR,4R,5R,7S,8S,9aS,12R)-8-hydroxy-4,7,12-trimethyl-3-oxo-7-vinyldecahydro-4,9a-propanocyclopenta[8]annulen-5-yl 2-((1-hydroxy-2-methyl-1,2-dihydrobenzo[d][1,2,3]diazaborinin-7-yl)oxy)acetate] | – | –
– | – | – | C=C[C@]1(C)C[C@@H](OC(=O)COc2ccc3c(c2F)B(O)N(C)N=C3)[C@]2(C)[C@H](C)CC[C@]3(CCC(=O)[C@H]32)[C@@H](C)[C@@H]1O [Compound 85, (3aR,4R,5R,7S,8S,9R,9aS,12R)-8-hydroxy-4,7,9,12-tetramethyl-3-oxo-7-vinyldecahydro-4,9a-propanocyclopenta[8]annulen-5-yl 2-((8-fluoro-1-hydroxy-2-methyl-1,2-dihydrobenzo[d][1,2,3]diazaborinin-7-yl)oxy)acetate] | < 0.25 | < 0.25
– | – | – | C=C[C@]1(C)C[C@@H](OC(=O)COc2ccc3c(c2)B(O)N(C(C)=O)N=C3)[C@]2(C)[C@H](C)CC[C@]3(CCC(=O)[C@H]32)[C@@H](C)[C@@H]1O [Compound 87, (3aR,4R,5R,7S,8S,9R,9aS,12R)-8-hydroxy-4,7,9,12-tetramethyl-3-oxo-7-vinyldecahydro-4,9a-propanocyclopenta[8]annulen-5-yl 2-((2-acetyl-1-hydroxy-1,2-dihydrobenzo[d][1,2,3]diazaborinin-7-yl)oxy)acetate] | < 0.25 | < 0.25
– | – | – | C=C[C@]1(C)C[C@@H](OC(=O)COc2ccc3c(c2F)B(O)N(C(C)=O)N=C3)[C@]2(C)[C@H](C)CC[C@]3(CCC(=O)[C@H]32)[C@@H](C)[C@@H]1O [Compound 89, (3aR,4R,5R,7S,8S,9R,9aS,12R)-8-hydroxy-4,7,9,12-tetramethyl-3-oxo-7-vinyldecahydro-4,9a-propanocyclopenta[8]annulen-5-yl 2-((2-acetyl-8-fluoro-1-hydroxy-1,2-dihydrobenzo[d][1,2,3]diazaborinin-7-yl)oxy)acetate] | < 0.25 | < 0.25
– | – | – | C=C[C@]1(C)C[C@@H](OC(=O)COc2ccc3c(c2)B(O)N(C(=O)OC)N=C3)[C@]2(C)[C@H](C)CC[C@]3(CCC(=O)[C@H]32)[C@@H](C)[C@@H]1O [Compound 91, Methyl 1-hydroxy-7-(2-(((3aR,4R,5R,7S,8S,9R,9aS,12R)-8-hydroxy-4,7,9,12-tetramethyl-3-oxo-7-vinyldecahydro-4,9a-propanocyclopenta[8]annulen-5-yl)oxy)-2-oxoethoxy)benzo[d][1,2,3]diazaborinine-2(1H)-carboxylate] | < 0.25 | 0.5 to 2 (≈ 0.861 to 3.45 µM)
– | – | – | C=C[C@]1(C)C[C@@H](OC(=O)COc2ccc3c(c2F)B(O)N(C(=O)OC)N=C3)[C@]2(C)[C@H](C)CC[C@]3(CCC(=O)[C@H]32)[C@@H](C)[C@@H]1O [Compound 93, Methyl 8-fluoro-1-hydroxy-7-(2-(((3aR,4R,5R,7S,8S,9R,9aS,12R)-8-hydroxy-4,7,9,12-tetramethyl-3-oxo-7-vinyldecahydro-4,9a-propanocyclopenta[8]annulen-5-yl)oxy)-2-oxoethoxy)benzo[d][1,2,3]diazaborinine-2(1H)-carboxylate] | < 0.25 | 0.5 to 2 (≈ 0.835 to 3.34 µM)
– | – | – | C=C[C@]1(C)C[C@@H](OC(=O)COc2ccc3c(c2C)B(O)N(C(=O)OC)N=C3)[C@]2(C)[C@H](C)CC[C@]3(CCC(=O)[C@H]32)[C@@H](C)[C@@H]1O [Compound 94, Methyl 1-hydroxy-7-(2-(((3aR,4R,5R,7S,8S,9R,9aS,12R)-8-hydroxy-4,7,9,12-tetramethyl-3-oxo-7-vinyldecahydro-4,9a-propanocyclopenta[8]annulen-5-yl)oxy)-2-oxoethoxy)-8-methylbenzo[d][1,2,3]diazaborinine-2(1H)-carboxylate] | < 0.25 | 0.5 to 2 (≈ 0.841 to 3.36 µM)
– | – | – | C=C[C@]1(C)C[C@@H](OC(=O)COc2ccc3c(c2)B(O)ON=C3)[C@]2(C)[C@H](C)CC[C@]3(CCC(=O)[C@H]32)[C@@H](C)[C@@H]1O [Compound 96, (3aR,4R,5R,7S,8S,9R,9aS,12R)-8-hydroxy-4,7,9,12-tetramethyl-3-oxo-7-vinyldecahydro-4,9a-propanocyclopenta[8]annulen-5-yl 2-((1-hydroxy-1H-benzo[d][1,2,6]oxazaborinin-7-yl)oxy)acetate] | < 0.25 | 0.5 to 2 (≈ 0.955 to 3.82 µM)
– | – | – | C=C[C@]1(C)C[C@@H](OC(=O)COc2ccc3c(c2F)B(O)ON=C3)[C@]2(C)[C@H](C)CC[C@]3(CCC(=O)[C@H]32)[C@@H](C)[C@@H]1O [Compound 97, (3aR,4R,5R,7S,8S,9R,9aS,12R)-8-hydroxy-4,7,9,12-tetramethyl-3-oxo-7-vinyldecahydro-4,9a-propanocyclopenta[8]annulen-5-yl 2-((8-fluoro-1-hydroxy-1H-benzo[d][1,2,6]oxazaborinin-7-yl)oxy)acetate] | < 0.25 | 0.5 to 2 (≈ 0.923 to 3.69 µM)
> 1000 | > 64 | – | C=C[C@]1(C)C[C@@H](OC(=O)COc2cc3c(cn2)COB3O)[C@]2(C)[C@H](C)CC[C@]3(CCC(=O)[C@H]32)[C@@H](C)[C@@H]1O [Compound 100, (3aR,4R,5R,7S,8S,9R,9aS,12R)-8-hydroxy-4,7,9,12-tetramethyl-3-oxo-7-vinyldecahydro-4,9a-propanocyclopenta[8]annulen-5-yl 2-((1-hydroxy-1,3-dihydro-[1,2]oxaborolo[4,3-c]pyridin-6-yl)oxy)acetate] | – | –
– | < 0.25 | 0.5 to 2 (≈ 0.962 to 3.85 µM) | C=C[C@]1(C)C[C@@H](OC(=O)COc2ccc3c(c2)NB(C)C=C3)[C@]2(C)[C@H](C)CC[C@]3(CCC(=O)[C@H]32)[C@@H](C)[C@@H]1O [Compound 104, (3aR,4R,5R,7S,8S,9R,9aS,12R)-8-hydroxy-4,7,9,12-tetramethyl-3-oxo-7-vinyldecahydro-4,9a-propanocyclopenta[8]annulen-5-yl 2-((2-methyl-1,2-dihydrobenzo[e][1,2]azaborinin-7-yl)oxy)acetate] | – | –
